Results from patent US20100021924A1, “Transgenic animal and methods for decreasing cardiac cell death via cardiac-specific sir2alpha overexpression” (priority 2005, published 2010).
Entries after “also recorded” stand apart in the source; their conditions may differ.

What was measured:
cardiac myocytes [1] = assay: TUNEL staining of cultured cardiac myocytes; assay type: cell-based, rat; conditions: for TUNEL positive myocytes: compound alone
Method: Subsequently, it was determined whether cardiac myocyte death by Sir2α inhibition was due to apoptosis. […] To examine whether activation of caspase-3 was involved in myocyte death induced by NAM and TSA, the effect of DEVD-CHO, a cell permeable inhibitor of caspase-3, upon myocyte death was examined.
Primary Culture of Neonatal Rat Ventricular Myocytes. […] Myocytes were cultured under serum-free conditions for 48 hours before experiments.

caspase-3 = assay: Caspase-3 cleavage in cardiac myocytes; assay type: cell-based, rat; conditions: treated cardiac myocytes
Method: (§1) Subsequently, it was determined whether cardiac myocyte death by Sir2α inhibition was due to apoptosis. […] Similar results were obtained using TUNEL staining. To examine whether activation of caspase-3 was involved in myocyte death induced by NAM and TSA, the effect of DEVD-CHO, a cell permeable inhibitor of caspase-3, upon myocyte death was examined.
To further confirm that inhibition of endogenous Sir2α stimulates cardiac myocyte apoptosis, the effects of a dominant-negative Sir2α were examined. […] The level of cleaved caspase-3 was higher in dominant-negative Sir2α-transduced myocytes than in LacZ-transduced cells.
Immunoblot Analysis. Nuclear fractions were prepared as described (Tomita, et al. (2003) supra). Whole-cell lysates were obtained using Lysis Buffer A, containing 150 mmol/L NaCl, 50 mmol/L Tris, pH 7.5, 0.1 mmol/L Na3VO4, 1 mmol/L NaF, 0.5 mmol 4-(2-aminoethyl)benzenesulfonyl fluoride hydrochloride, 1% NONIDET P-40, 0.1% sodium dodecyl sulfate, 0.5% deoxycholic acid, 0.5 μg/mL leupeptin, and 0.5 μg/mL aprotinin. For immunoblotting, the antimurine Sir2α antibody (1:10 000) was used.

cardiac myocytes [2] = assay: Cell Death Detection ELISA (cytoplasmic mono- and oligo-nucleosomes); assay type: cell-based, rat; conditions: for mono- and oligo-nucleosomes in the cytoplasm (nuclear fragmentation): marker of apoptosis
Method: Myocytes were transduced with an adenoviral vector encoding LacZ (Ad-LacZ) or Sir2α (Ad-Sir2α) with or without serum for 48 hours followed by Cell Death ELISA (FIG. 1A). Alternatively, myocytes were transduced Ad-LacZ or Ad-Sir2α with or without H2O2 (100 μM) for 48 hours followed by Cell Death ELISA (FIG. 1B). […] Mean OD value of control was designated as 1. Each column represents mean from 3 different culture preparations.
as §1
(§2) Cardiac-specific overexpression of Sir2α was subsequently examined. […] After 7 days, most myocytes were dead in a low-density culture condition. […] It has been shown that pyruvate increases, while lactate decreases, the cellular NAD^+/NADH ratio, thereby positively or negatively regulating the activity of endogenous Sir2α (Fulco, et al. (2003) Mol. Cell 12:51-62).
(§3) Primary Culture of Neonatal Rat Ventricular Myocytes. Primary cultures of cardiac ventricular myocytes were prepared from 1-day-old Crl: (WI) BR-Wistar rats according to standard methods (Tomita, et al. (2003) Circ. Res. 93:12-22). Myocytes were cultured under serum-free conditions for 48 hours before experiments. Cell size and total protein content were obtained (Tomita, et al. (2003) supra).
Assays for Apoptosis. Histone-associated DNA fragments were quantitated by the Cell Death Detection ELISA (ROCHE; Yamamoto, et al. (2003) J. Clin. Invest. 111:1463-1474).

myocytes = conditions: treatment with resveratrol; Pillai et al. 2005; cited from earlier work
p53 [3] = assay: Immunoblot of nuclear fractions with anti-acetylated p53 antibodies; assay type: cell-based, rat; conditions: for Acetylation of p53 at K320 / Acetylation of p53 at K373/382: nuclear fractions of treated myocytes; for total amount of p53: treated myocytes
Excerpt: To examine whether the status of acetylation in p53 is affected by NAM or TSA in cardiac myocytes, nuclear fractions were subjected to immunoblot analysis with anti-acetylated p53 antibodies.
Anti-Sir2α antibody, anti-acetyl-p53 (Lys 320 and Lys 373/382) antibodies and anti-acetyl histone H3 and H4 antibodies were purchased from Upstate. Sirtinol and DEVD-CHO were from CALBIOCHEM, and Trichostatin A (TSA) was from SIGMA.

p53 [4] = assay: p53-Luc reporter gene assay; assay type: cell-based, rat; conditions: treated myocytes
Method: Transfection and Luciferase Assays. One million cells were transfected with 4 μg of plasmid. The transcriptional activity of p53 was evaluated using p53-Luc (2 pg) containing 15 copies of specific p53 DNA-binding sequence ([sequence]). A plasmid carrying the β-galactosidase gene (SV40-β-gal; 1 μg) was cotransfected. One microgram of expression plasmids pcDNA3.1, pcDNA3.1-Sir2α, or pcDNA 3.1-DN-Sir2α was employed.

[5] = tested on: neonatal rat cardiac myocytes; assay: Cardiac myocyte morphology and death (shrinkage, detachment, cell size); assay type: cell-based
Method: A 110 kD protein was detected predominantly in the nuclear fraction. To examine the function of Sir2α in cardiac myocytes, nicotinamide (NAM) and sirtinol, inhibitors of Sir2 (Bitterman, et al. (2002) J. Biol. Chem. 277:45099-45107; Grozinger, et al. (2001) J. Biol. Chem. 276:38837-38843) were employed. Myocytes were also treated with trichostatin A (TSA), an inhibitor of class I and II HDACs (Johnstone (2002) Nat. Rev. Drug Discov. 1:287-299).
To examine whether cardiac myocyte apoptosis due to inhibition of Sir2α is mediated by p53, cardiac myocytes were transduced with adenovirus harboring temperature-sensitive dominant-negative p53 and cultured at 39° C. […] The temperature-sensitive dominant-negative p53 construct works as a dominant-negative only at high temperatures (Regula and Kirshenbaum (2001) J. Mol. Cell. Cardiol. 33:1435-1445). Consistent with this, the cell death inhibitory effect of dominant-negative p53 against NAM treatment was not observed at 32° C.
as §2, §3

Histones 3 and 4 = assay: Histone acetylation in treated cardiac myocytes (immunoblot); assay type: cell-based, rat
mouse hearts = assay type: in vivo, mice; parameters: LV contraction (EF, % FS): dose or concentration left out as unconfirmed
Method: Tg-Sirt2α (n=6) and NTg (n=4) mice from line 40 were treated with ip injection of 10 mg/kg of paraquat (PQ) for 2 weeks. LV ejection fraction (EF, FIG. 8A) and % fractional shortening (% FS, FIG. 8B) of Tg-Sirt2α and NTg mice after PQ treatment is shown. […] Immunoblot analyses of catalase were conducted, using cardiac myocytes transduced with adenovirus vectors harboring constitutively actively FOXO1a (F-CA), dominant negative FOXO1a (F-DN), or Sirt2α. n=3-4. Values are presented as means±SE.
To this end, mice were treated for 14 days with paraquat, an inducer of oxidative stress. […] The paraquat-induced increases in oxidative stress were abolished in Tg-Sirt1 line 40 (FIG. 8D). […] Paraquat-induced increases in expression of catalase, an antioxidant, were greater in Tg-Sirt1 than in NTg hearts (FIG. 8E).

Question: For DEVD-CHO, which “TUNEL positive myocytes caused by NAM” value (cardiac myocytes [1]; effect of caspase-3 inhibitor on NAM-induced death) is on record?
Answer: prevented increases in TUNEL positive myocytes

Question: And the “TUNEL-positive myocytes due to TSA” value (cardiac myocytes [1]; effect of caspase-3 inhibitor on TSA-induced death)?
Answer: did not affect

Question: With `CC(NC(=O)c1ccccc1/N=C/c1c(O)ccc2ccccc12)c1ccccc1` (stereo not drawn) [sirtinol] as the compound, how does the “cleavage of caspase-3” value (caspase-3) read?
Answer: induced cleavage of caspase-3

Question: And the “mono- and oligo-nucleosomes in the cytoplasm (nuclear fragmentation)” value (cardiac myocytes [2])?
Answer: significantly increased

Question: Which “myocyte cell death in vitro” value (myocytes) does the source give for `Oc1ccc(C=Cc2cc(O)cc(O)c2)cc1` [resveratrol] here?
Answer: prevents myocyte cell death

Question: With `CC(/C=C/C(=O)NO)=C\[C@@H](C)C(=O)c1ccc(N(C)C)cc1` [TSA, trichostatin A] as the compound, how does the “cleavage of caspase-3” value (caspase-3) read?
Answer: did not

Question: What about the “Acetylation of p53 at K320” value (p53 [3]) of the same compound?
Answer: not

Question: And the “Acetylation of p53 at K373/382” value (p53 [3])?
Answer: not

Question: And the “total amount of p53” value (p53 [3])?
Answer: Neither NAM nor TSA significantly changed

Question: What about the “mono- and oligo-nucleosomes in the cytoplasm (nuclear fragmentation)” value (cardiac myocytes [2]) of the same compound?
Answer: significantly increased nuclear fragmentation; also recorded: not as potent as NAM

Question: What about the “activity of p53-Luc” value (p53 [4]) of the same compound?
Answer: failed to activate

Question: And the myocyte death ([5]; at high doses)?
Answer: caused death in some myocytes at high doses

Question: And the cell size ([5]; treated cardiac myocytes)?
Answer: modestly increased cell size

Question: What about the TUNEL positive myocytes (cardiac myocytes [1]) of the same compound?
Answer: modest increase in TUNEL-positive myocytes

Question: What about the “acetylation of Histones 3 and 4” value (Histones 3 and 4) of the same compound?
Answer: increased acetylation of Histones 3 and 4

Question: With `NC(=O)c1cccnc1` [NAM, nicotinamide] as the compound, how does the “cleavage of caspase-3” value (caspase-3) read?
Answer: induced cleavage of caspase-3

Question: And the “Acetylation of p53 at K320” value (p53 [3])?
Answer: 2.8 fold

Question: What about the “Acetylation of p53 at K373/382” value (p53 [3]) of the same compound?
Answer: 1.8 fold

Question: What about the “total amount of p53” value (p53 [3]) of the same compound?
Answer: Neither NAM nor TSA significantly changed

Question: And the “mono- and oligo-nucleosomes in the cytoplasm (nuclear fragmentation)” value (cardiac myocytes [2])?
Answer: significantly increased

Question: And the “activity of p53-Luc” value (p53 [4])?
Answer: dose-dependently increased

Question: And the “cell shrinkage and detachment, consistent with apoptosis” value ([5]; treatment for 48 hours)?
Answer: dose-dependent increases in cell shrinkage and detachment

Question: What about the TUNEL positive myocytes (cardiac myocytes [1]) of the same compound?
Answer: increases in TUNEL positive myocytes

Question: What about the “acetylation of Histones 3 and 4” value (Histones 3 and 4) of the same compound?
Answer: increased acetylation of Histones 3 and 4

Question: With `CC(O)C(=O)O` (stereo not drawn) [lactate] as the compound, how does the “cytoplasmic accumulation of mono- and oligo-nucleosomes induced by serum starvation” value (cardiac myocytes [2]; 10 mM, 48 hours (FIG. 1C)) read?
Answer: stimulated it

Question: For `C[n+]1ccc(-c2cc[n+](C)cc2)cc1` [Paraquat, paraquat], which “LV contraction (EF, % FS)” value (mouse hearts) is on record?
Answer: significantly reduced LV contraction

Question: And the “oxidative stress (8-OHdG staining, MDA content)” value (mouse hearts; NTg mouse hearts, ip 10 mg/kg, 14 days)?
Answer: significantly increased the extent of oxidative stress
